This test has as its system AKR/Lw mice, AKR lymphoma ip, median survival T/C. The test can be described thus: NCI In Vivo Anticancer Drug Screen. Data for tumor model Lymphoma AKR (Transplanted) (intraperitoneal) in AKR/Lw mice. To be noted: endpoint: median survival time, higher = longer survival. The method, then: The antitumor activity of compounds was measured in mice bearing transplantable tumors. Survival or tumor size were measured and the results are expressed as the measurement made in the treated group (T) divided by the measurement made in the vehicle treated control group (C). The tumor model used in this assay is Lymphoma AKR (Transplanted) (intraperitoneal) in AKR/Lw mice

Where [1] appears, read: dose: 100.0 mg/kg/injection, schedule: Q01DX001 (ip), vehicle: Klucel (hydroxypropylcellulose) (HPC).
Setting [2] is: dose: 100.0 mg/kg/injection, schedule: Q04DX003 (ip), vehicle: Klucel (hydroxypropylcellulose) (HPC).
[3] abbreviates: dose: 200.0 mg/kg/injection, schedule: Q01DX001 (ip), vehicle: Klucel (hydroxypropylcellulose) (HPC).
Where [4] appears, read: dose: 200.0 mg/kg/injection, schedule: Q04DX003 (ip), vehicle: Klucel (hydroxypropylcellulose) (HPC).
Setting [5] is: dose: 400.0 mg/kg/injection, schedule: Q01DX001 (ip), vehicle: Klucel (hydroxypropylcellulose) (HPC).
[6] abbreviates: dose: 100.0 mg/kg/injection, schedule: Q01DX001 (ip), vehicle: saline.
Where [7] appears, read: dose: 200.0 mg/kg/injection, schedule: Q01DX001 (ip), vehicle: saline.
Where [8] appears, read: dose: 400.0 mg/kg/injection, schedule: Q01DX001 (ip), vehicle: saline.
The mark [9] stands for this setting: dose: 50.0 mg/kg/injection, schedule: Q04DX003 (ip), vehicle: Klucel (hydroxypropylcellulose) (HPC).

Where “and” joins values, the source holds several entries; their conditions need not be identical. Identical values can stand only once. Inconclusive results and toxic doses are left out.

Take `CCOC(=O)N(CC)c1ccccc1`: the T/C by setting is: under setting [1], 109 % of control; under setting [2], 113 % of control; under setting [3], 111 % of control; under setting [4], 94 % of control; under setting [5], 100 % of control; (dose: 400.0 mg/kg/injection, schedule: Q04DX003 (ip), vehicle: Klucel (hydroxypropylcellulose) (HPC)) 98 % of control.

With `O=CN(c1ccccc1)c1ccccc1`, the T/C (dose: 25.0 mg/kg/injection, schedule: Q01DX001 (ip), vehicle: Klucel (hydroxypropylcellulose) (HPC)) was 111 % of control; the T/C (dose: 50.0 mg/kg/injection, schedule: Q01DX001 (ip), vehicle: Klucel (hydroxypropylcellulose) (HPC)) was 105 % of control; the T/C under setting [1] was 97 % of control; the T/C (dose: 100.0 mg/kg/injection, schedule: Q01DX001 (ip), vehicle: other) was 120 % of control; the T/C (dose: 200.0 mg/kg/injection, schedule: Q01DX001 (ip), vehicle: other) is 118 % of control; the T/C (dose: 400.0 mg/kg/injection, schedule: Q01DX001 (ip), vehicle: other) is 100 % of control.

With `CC(=O)C1CCC2C3CCC4CC(O)CCC4(C)C3CCC12C#N` (configuration not stated), the T/C was 104 % of control (dose: 100.0 mg/kg/injection, schedule: Q01DX001 (sc), vehicle: steriod suspending solution); 106 % of control (dose: 200.0 mg/kg/injection, schedule: Q01DX001 (sc), vehicle: steriod suspending solution); 95 % of control (dose: 400.0 mg/kg/injection, schedule: Q01DX001 (sc), vehicle: steriod suspending solution).

Take `N=Cc1c(O)[nH]c(=O)[nH]c1=O`: the T/C runs as follows: under setting [6], 105 % of control; under setting [2], 100 % of control; under setting [7], 119 % of control; under setting [4], 93 % of control; under setting [8], 88 % of control.

Consider `S=C1SCN(Cc2ccccc2)CN1Cc1ccccc1`, for which the T/C runs as follows: under setting [6], 111 % of control; under setting [7], 91 % of control; under setting [8], 91 % of control.

With `NC(=S)N/N=C/c1ccc(O)cn1`, the T/C reads like this: (dose: 3.12 mg/kg/injection, schedule: Q01DX009 (ip), vehicle: Klucel (hydroxypropylcellulose) (HPC)) 116 % of control; (dose: 12.5 mg/kg/injection, schedule: Q01DX009 (ip), vehicle: Klucel (hydroxypropylcellulose) (HPC)) 214 % of control; (dose: 20.0 mg/kg/injection, schedule: Q06HX008 (ip), vehicle: Klucel (hydroxypropylcellulose) (HPC)) 115 % of control; (dose: 20.0 mg/kg/injection, schedule: Q06HX012 (ip), vehicle: Klucel (hydroxypropylcellulose) (HPC)) 115 % of control; (dose: 25.0 mg/kg/injection, schedule: Q01DX009 (ip), vehicle: Klucel (hydroxypropylcellulose) (HPC)) 119 % of control; (dose: 25.0 mg/kg/injection, schedule: Q04DX003 (ip), vehicle: Klucel (hydroxypropylcellulose) (HPC)) 116 % of control. The T/C runs as follows: (dose: 30.0 mg/kg/injection, schedule: Q06HX008 (ip), vehicle: Klucel (hydroxypropylcellulose) (HPC)) 107 % of control; (dose: 31.25 mg/kg/injection, schedule: Q06HX004 (ip), vehicle: saline) 116 % of control; (dose: 31.25 mg/kg/injection, schedule: Q06HX012 (ip), vehicle: saline) 96 % of control; (dose: 31.25 mg/kg/injection, schedule: Q06HX016 (ip), vehicle: saline) 113 % of control; (dose: 40.0 mg/kg/injection, schedule: Q06HX008 (ip), vehicle: Klucel (hydroxypropylcellulose) (HPC)) 103 % of control; (dose: 40.0 mg/kg/injection, schedule: Q06HX012 (ip), vehicle: Klucel (hydroxypropylcellulose) (HPC)) 123 % of control. The T/C runs as follows: (dose: 50.0 mg/kg/injection, schedule: Q01DX009 (ip), vehicle: Klucel (hydroxypropylcellulose) (HPC)) 110 % of control and 214 % of control; under setting [9], 123 % of control; (dose: 50.0 mg/kg/injection, schedule: Q06HX008 (ip), vehicle: Klucel (hydroxypropylcellulose) (HPC)) 88 % of control; (dose: 50.0 mg/kg/injection, schedule: Q06HX012 (ip), vehicle: Klucel (hydroxypropylcellulose) (HPC)) 111 % of control; (dose: 60.0 mg/kg/injection, schedule: Q06HX008 (ip), vehicle: Klucel (hydroxypropylcellulose) (HPC)) 119 % of control; (dose: 60.0 mg/kg/injection, schedule: Q06HX012 (ip), vehicle: Klucel (hydroxypropylcellulose) (HPC)) 103 % of control. Further, the T/C (dose: 62.5 mg/kg/injection, schedule: Q06HX004 (ip), vehicle: saline) is 90 % of control; the T/C (dose: 62.5 mg/kg/injection, schedule: Q06HX008 (ip), vehicle: saline) was 110 % of control; the T/C (dose: 62.5 mg/kg/injection, schedule: Q06HX012 (ip), vehicle: saline) was 113 % of control; the T/C (dose: 62.5 mg/kg/injection, schedule: Q06HX016 (ip), vehicle: saline) was 120 % of control; the T/C (dose: 75.0 mg/kg/injection, schedule: Q01DX009 (ip), vehicle: Klucel (hydroxypropylcellulose) (HPC)) is 173 % of control; the T/C under setting [2] was 120 % of control. The T/C by setting is: (dose: 125.0 mg/kg/injection, schedule: Q06HX008 (ip), vehicle: saline) 96 % of control; (dose: 125.0 mg/kg/injection, schedule: Q06HX012 (ip), vehicle: saline) 86 % of control; under setting [4], 123 % of control.

`O=C(O)CCC(=O)Nc1cccc(Oc2ccc([N+](=O)[O-])cc2[N+](=O)[O-])c1`: the T/C is 100 % of control under setting [1], 87 % of control under setting [3] and 90 % of control under setting [5].

For the compound `CCCCCCCCCCCCCCCC(=O)N(CCCN)CCCCCCCCCN(CCCN)C(=O)CCCCCCCCCCCCCCC`, the T/C was 100 % of control (dose: 12.5 mg/kg/injection, schedule: Q01DX009 (ip), vehicle: saline); 92 % of control (dose: 25.0 mg/kg/injection, schedule: Q01DX009 (ip), vehicle: saline); 107 % of control (dose: 50.0 mg/kg/injection, schedule: Q01DX009 (ip), vehicle: saline); 95 % of control (dose: 50.0 mg/kg/injection, schedule: Q04DX003 (ip), vehicle: other); 108 % of control under setting [6]; 95 % of control (dose: 100.0 mg/kg/injection, schedule: Q04DX003 (ip), vehicle: other).

Consider `COC(=O)CC(=O)c1ccc(C)cc1`, for which the T/C reads like this: under setting [1], 100 % of control; under setting [3], 103 % of control; under setting [5], 120 % of control.

In the case of `CCn1c(O)c(C=N)c(=O)[nH]c1=O`, the T/C is, setting by setting: (dose: 50.0 mg/kg/injection, schedule: Q01DX001 (ip), vehicle: saline) 102 % of control; under setting [9], 87 % of control; under setting [6], 94 % of control; under setting [7], 94 % of control; under setting [4], 93 % of control.

The values are drawn from PubChem BioAssay AID190 (DTP/NCI, 2004).
